The target in the first data set is Histone deacetylase. Nature of the data set: In vitro inhibition of Histone deacetylase in K 562 erythroleukemia cells. Also on record: species or system Homo sapiens.
Settings: not given
What is called IC50 is the concentration needed to halve the response being measured. `O=C(CCCCCCC(=O)c1ncco1)Nc1cccc(-c2ccccc2)c1` came in with an IC50 of 60 nM. The same measure, in the same setting: for `O=C(CCCCCC(=O)c1ncco1)Nc1cccc(-c2ccccc2)c1` the value was 310 nM; for `O=C(CCCCCCOc1ccc(-c2ccccc2)cc1)c1ncco1`, 1100 nM. Same read-out and setting: next, `O=C(CCCCC/C=C/c1ccc(-c2ccccc2)cc1)c1ncco1`: 990 nM. Consider `O=C(CCCCCCC(=O)c1ncco1)Nc1ccc(Oc2ccccc2)cc1`, for which the IC50 is 580 nM. For the compound `O=C(CCCCCC(=O)c1ncco1)Nc1ccc(Cl)cc1`, the IC50 turned out to be 1500 nM. Still for that read-out and setting: next, `O=C(CCCCCCNc1ccc2ccccc2c1)c1ncco1`: 430 nM; `O=C(CCCCCCOc1ccc2ccccc2c1)c1ncco1`: 520 nM.

As for `O=C(CCCCCCOc1cccc(-c2ccccc2)c1)c1ncco1`, the IC50 came out at 620 nM. `O=C(CCCCCCSc1ccc2ccccc2c1)c1ncco1`: the IC50 worked out at 540 nM.

`O=C(CCCCCC(=O)c1ncco1)NCc1ccc(Cl)cc1` returned an IC50 of 6400 nM. On the same count and under the same terms, for `COc1ccc(-c2csc(NC(=O)CCCCCCC(=O)c3ncco3)n2)cc1` the value was 30 nM; for `O=C(CCCCCCOc1ccc(-c2ccccc2)cc1)c1nnn[nH]1`, 2000 nM. Still for that read-out and setting: next, `O=C(CCCCCCOc1ccc(-c2ccccc2)cc1)C1=NCCO1`: 1800 nM; `O=C(NCCCCCC(=O)c1ncco1)c1cc2ccccc2[nH]1`: 340 nM; `O=C(CCCCCCS(=O)(=O)c1ccc2ccccc2c1)c1ncco1`: 610 nM. The same measure, in the same setting: for `O=C(NCCCCCCC(=O)c1ncco1)c1cc2ccccc2[nH]1` the value was 90 nM. On to `O=C(CCCCCCC(=O)c1ncco1)Nc1ccc(Cl)cc1`, for which the IC50 is 320 nM.

Test system in the next data set: not listed separately
Nature of the data set: Anti-proliferative activity against MDA-435 cells mediated by HDAC inhibition. The data set is classed as functional, cell-based. The note with it: Homo sapiens, MDA435.
`COc1ccc(-c2csc(NC(=O)CCCCCCC(=O)c3ncco3)n2)cc1` gave an IC50 of 2300 nM.

Another data set addresses Histone deacetylase. Nature of the data set: Inhibitory activity against Histone deacetylase (HDAC) in K 562 erythroleukemia cells (Radioactivity based HDAC assay). Details: species or system Homo sapiens.
Settings: not given
Turning to `O=C(CCCCCCOc1ccc(-c2ccccc2)cc1)c1nc2ncccc2o1`, the IC50 was above 50000 nM. Same read-out and setting: for `OC(CCCCCCOc1cccc(-c2ccccc2)c1)c1ncco1` (centres undefined) the value was above 50000 nM; for `O=C(CCCCCC(=O)c1ncco1)NNc1ccc(Cl)cc1`, above 10000 nM; for `Cn1cncc1C(=O)CCCCCCOc1ccc(-c2ccccc2)cc1`, above 50000 nM. On to `O=C(CCCCCCOc1ccc(-c2ccccc2)cc1)c1nc2ccccc2o1`, for which the IC50 was above 50000 nM. Still for that read-out and setting: for `O=C(CCCCCCC(=O)c1ncco1)NNC(=O)c1ccc(-c2ccccc2)cc1` the value was 1830 nM; for `O=C(CCCCCCOc1ccc(-c2ccccc2)cc1)c1ccccn1`, above 50000 nM. On the same count and under the same terms, next, `O=C(CCCCCCc1nnc(-c2ccc(-c3ccccc3)cc2)o1)c1ncco1`: 250 nM; `O=C(CCCCCCOc1ccc(-c2ccccc2)cc1)c1nccs1`: above 50000 nM.

As to `O=C(c1ncco1)[C@@H]1C[C@H]1CCCCOc1ccc(Oc2ccccc2)cc1`, the IC50 is above 50000 nM. The same measure, in the same setting: for `O=C(CCCCCCOc1ccc(-c2ccccc2)cc1)c1ncc[nH]1` the value was above 50000 nM; for `Cn1ccnc1C(=O)CCCCCCOc1ccc(-c2ccccc2)cc1`, above 50000 nM.

Test system in a further data set: not listed separately
Nature of the data set: Half-life was determined. The class given is ADME. The note with it: human.
The term half-life denotes the time in which the quantity being followed falls by half. A higher half-life goes with slow decline. Turning to `O=C(CCCCCCOc1ccc(-c2ccccc2)cc1)c1ncco1`, the half-life is 10.8 min. Same read-out and setting: for `O=C(CCCCCCOc1cccc(-c2ccccc2)c1)c1ncco1` the value was 12.6 min.

The target of the next data set is Histone deacetylase. Also on record: species or system Homo sapiens.
Settings: not given
With `CNC(=O)C(=O)CCCCCCOc1ccc(-c2ccccc2)cc1`, the IC50 was found to be 110 nM.
